From ChEMBL document CHEMBL5465560, “Selectivity Literature for EUbOPEN Chemogenomic Library” (2024)
Blank lines part the entries; values can stand above or below the molecule they belong to.

Key:
[1] = molecular target: T1, Cyclin-dependent kinase 12 (Homo sapiens, UniProt Q9NYV4); assay: Selectivity interaction (Western blot assay (pull-down blockage of CDK7-cyclin H using lysates from Jurkat cells)) EUB0001635a CDK12; assay type: subcellular, lysate
[2] = molecular target: T2, Cyclin-dependent kinase 13 (Homo sapiens, UniProt Q14004); assay: Selectivity interaction (Radioactive kinase activity assay) EUB0001635a CDK13
[3] = molecular target: Cyclin-dependent kinase 7 (Homo sapiens, UniProt P50613, C312S); assay: Selectivity interaction (Radioactive kinase assays (from cellular C312S flag-tagged CDK7 immunoprecipitated in HeLa cells)) EUB0001635a CDK7; assay type: cell-based
[4] = molecular target: T3, Cyclin-dependent kinase 7 (Homo sapiens, UniProt P50613); assay: Selectivity interaction (Electrophoretic mobility shift assay) EUB0001635a CDK7
[5] = molecular target: T3, Cyclin-dependent kinase 7; assay: Selectivity interaction (Western blot assay (pull-down blockage of CDK7-cyclin H using lysates from Jurkat cells)) EUB0001635a CDK7; assay type: subcellular, lysate
[6] = molecular target: T1, Cyclin-dependent kinase 12; assay: Selectivity interaction (Western blot assay (pull-down blockage of CDK7-cyclin H using lysates from HAP1 cells)) EUB0001635a CDK12; assay type: cell-based
[7] = molecular target: T1, Cyclin-dependent kinase 12; assay: Selectivity interaction (Radioactive kinase activity assay) EUB0001635a CDK12
[8] = molecular target: T3, Cyclin-dependent kinase 7; assay: Selectivity interaction (Western blot assay (pull-down blockage of CDK7-cyclin H using lysates from HAP1 cells)) EUB0001635a CDK7; assay type: cell-based
[9] = molecular target: T2, Cyclin-dependent kinase 13; assay: Selectivity interaction (Western blot assay (pull-down blockage of CDK7-cyclin H using lysates from Jurkat cells)) EUB0001635a CDK13; assay type: subcellular, lysate
[10] = molecular target: T2, Cyclin-dependent kinase 13; assay: Selectivity interaction (Western blot assay (pull-down blockage of CDK7-cyclin H using lysates from HAP1 cells)) EUB0001635a CDK13; assay type: cell-based
[11] = molecular target: Cyclin-dependent kinase 3 (Homo sapiens) (UniProt Q00526); conditions: at 1 µM
[12] = molecular target: CDK9/cyclin T1 (Homo sapiens) (UniProt O60563+P50750); assay: Selectivity interaction (Kinase panel (literature)) EUB0001623a CDK9; assay type: protein-complex assay; conditions: at 1 µM
[13] = molecular target: T4, Serine/threonine-protein kinase Sgk1 (Homo sapiens) (UniProt O00141); assay: Selectivity interaction (Kinase panel (literature)) EUB0001623a SGK1; conditions: at 1 µM
T4 sequence (whole entry): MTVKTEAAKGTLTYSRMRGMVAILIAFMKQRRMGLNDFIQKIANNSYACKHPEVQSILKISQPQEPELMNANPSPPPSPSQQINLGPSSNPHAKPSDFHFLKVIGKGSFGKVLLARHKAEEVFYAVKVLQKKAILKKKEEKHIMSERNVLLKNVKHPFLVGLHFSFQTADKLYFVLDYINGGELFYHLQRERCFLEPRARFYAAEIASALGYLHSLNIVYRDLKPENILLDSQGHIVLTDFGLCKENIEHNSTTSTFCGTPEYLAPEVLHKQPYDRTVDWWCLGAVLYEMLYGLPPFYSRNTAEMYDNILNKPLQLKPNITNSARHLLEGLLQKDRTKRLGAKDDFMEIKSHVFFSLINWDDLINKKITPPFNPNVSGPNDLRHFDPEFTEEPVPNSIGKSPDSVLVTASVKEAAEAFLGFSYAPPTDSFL

[14] = molecular target: Cyclin-dependent kinase 2/cyclin E (Homo sapiens) (UniProt P24864+P24941+O96020); conditions: at 1 µM
[15] = molecular target: Ribosomal protein S6 kinase beta-1 (Homo sapiens, UniProt P23443); assay: Selectivity interaction (Kinase panel (literature)) EUB0001623a RPS6KB1; conditions: at 1 µM
[16] = molecular target: Cyclin-dependent kinase 8 (Homo sapiens, UniProt P49336); assay: Selectivity interaction (Reporter displacement assay) EUB0001623a CDK8
[17] = molecular target: Cyclin-dependent kinase 1/cyclin B (Homo sapiens) (UniProt P06493+P14635+Q8WWL7+O95067); assay: Selectivity interaction (Kinase panel (literature)) EUB0001623a CDK1; assay type: protein-complex assay; conditions: at 1 µM
[18] = molecular target: NT-3 growth factor receptor (Homo sapiens, UniProt Q16288); assay: Selectivity interaction (Kinase panel (literature)) EUB0001623a NTRK3
[19] = molecular target: CDK7/Cyclin H/MNAT1 (Homo sapiens) (UniProt P51946+P50613+P51948); assay: Selectivity interaction (Kinase panel (literature)) EUB0001623a CDK7; assay type: protein-complex assay; conditions: at 1 µM
[20] = molecular target: T5, D(2) dopamine receptor (Homo sapiens, UniProt P14416); assay: (§1) Selectivity interaction (CEREP panel (binding assay, receptors and ion channels)) EUB0001623a DRD2; conditions: at 1 µM
[21] = molecular target: Cyclin-dependent kinase 9 (Homo sapiens, UniProt P50750); assay: Selectivity interaction (Reporter displacement assay) EUB0001623a CDK9
[22] = molecular target: Cyclin-dependent kinase 5 (Homo sapiens, UniProt Q00535); assay: (§2) Selectivity interaction (Kinase panel (literature)) EUB0001623a CDK5; conditions: at 1 µM
[23] = molecular target: T6, Receptor-type tyrosine-protein kinase FLT3 (Homo sapiens, UniProt P36888); assay: Selectivity interaction (Kinase panel (literature)) EUB0001623a FLT3
T6 sequence (P36888 whole entry): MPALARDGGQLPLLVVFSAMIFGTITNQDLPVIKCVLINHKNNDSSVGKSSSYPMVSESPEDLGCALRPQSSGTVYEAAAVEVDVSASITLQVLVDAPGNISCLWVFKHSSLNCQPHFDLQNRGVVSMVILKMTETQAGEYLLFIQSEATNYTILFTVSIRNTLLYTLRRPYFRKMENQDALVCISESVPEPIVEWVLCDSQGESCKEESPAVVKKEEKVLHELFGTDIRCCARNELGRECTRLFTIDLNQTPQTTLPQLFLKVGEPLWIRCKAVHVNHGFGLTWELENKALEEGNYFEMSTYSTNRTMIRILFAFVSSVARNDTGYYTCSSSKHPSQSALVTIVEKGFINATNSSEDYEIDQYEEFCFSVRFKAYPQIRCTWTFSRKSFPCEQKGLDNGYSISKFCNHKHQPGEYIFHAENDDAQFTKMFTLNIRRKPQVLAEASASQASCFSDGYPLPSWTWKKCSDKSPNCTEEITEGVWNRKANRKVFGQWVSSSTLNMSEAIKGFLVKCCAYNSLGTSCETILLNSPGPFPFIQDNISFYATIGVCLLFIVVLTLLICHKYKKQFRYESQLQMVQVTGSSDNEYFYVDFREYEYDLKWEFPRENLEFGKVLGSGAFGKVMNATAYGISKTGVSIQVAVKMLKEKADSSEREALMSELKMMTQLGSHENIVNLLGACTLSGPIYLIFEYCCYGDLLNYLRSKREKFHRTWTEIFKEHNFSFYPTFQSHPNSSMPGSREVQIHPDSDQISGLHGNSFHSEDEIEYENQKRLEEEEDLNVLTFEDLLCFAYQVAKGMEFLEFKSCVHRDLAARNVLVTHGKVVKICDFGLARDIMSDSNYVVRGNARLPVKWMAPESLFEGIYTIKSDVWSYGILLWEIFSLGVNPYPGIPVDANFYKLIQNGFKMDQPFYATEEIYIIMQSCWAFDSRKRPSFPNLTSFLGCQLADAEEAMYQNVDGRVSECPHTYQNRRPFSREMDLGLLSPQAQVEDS

[24] = molecular target: CDK6/cyclin D3 (Homo sapiens) (UniProt P30281+Q00534); assay: Selectivity interaction (Kinase panel (literature)) EUB0001623a CDK6; assay type: protein-complex assay; conditions: at 1 µM
[25] = molecular target: CDK5/Cyclin D3 (Homo sapiens) (UniProt Q00535+P30281); assay: as §2; assay type: protein-complex assay; conditions: at 1 µM
[26] = molecular target: T5, D(2) dopamine receptor; assay: as §1
[27] = molecular target: Cyclin-dependent kinase 2/cyclin A (Homo sapiens) (UniProt P24941+P20248+P78396); assay: Selectivity interaction (Kinase panel (literature)) EUB0001623a CDK2; assay type: protein-complex assay; conditions: at 1 µM
[28] = molecular target: Adenosine receptor A1 (Homo sapiens) (UniProt P30542); assay: Selectivity interaction (CEREP panel (binding assay, receptors and ion channels)) EUB0001623a ADORA1; conditions: at 1 µM
Sequence of Adenosine receptor A1 (Homo sapiens) (P30542 whole entry): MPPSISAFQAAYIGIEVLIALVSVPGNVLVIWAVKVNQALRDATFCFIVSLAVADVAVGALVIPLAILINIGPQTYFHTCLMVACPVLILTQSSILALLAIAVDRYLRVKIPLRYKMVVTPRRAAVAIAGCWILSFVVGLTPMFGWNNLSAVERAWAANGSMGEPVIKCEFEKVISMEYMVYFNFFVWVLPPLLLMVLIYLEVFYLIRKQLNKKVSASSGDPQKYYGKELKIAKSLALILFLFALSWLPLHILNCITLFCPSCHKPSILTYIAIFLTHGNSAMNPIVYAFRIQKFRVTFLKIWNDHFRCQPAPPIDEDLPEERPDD

T1 sequence (Q9NYV4 whole entry): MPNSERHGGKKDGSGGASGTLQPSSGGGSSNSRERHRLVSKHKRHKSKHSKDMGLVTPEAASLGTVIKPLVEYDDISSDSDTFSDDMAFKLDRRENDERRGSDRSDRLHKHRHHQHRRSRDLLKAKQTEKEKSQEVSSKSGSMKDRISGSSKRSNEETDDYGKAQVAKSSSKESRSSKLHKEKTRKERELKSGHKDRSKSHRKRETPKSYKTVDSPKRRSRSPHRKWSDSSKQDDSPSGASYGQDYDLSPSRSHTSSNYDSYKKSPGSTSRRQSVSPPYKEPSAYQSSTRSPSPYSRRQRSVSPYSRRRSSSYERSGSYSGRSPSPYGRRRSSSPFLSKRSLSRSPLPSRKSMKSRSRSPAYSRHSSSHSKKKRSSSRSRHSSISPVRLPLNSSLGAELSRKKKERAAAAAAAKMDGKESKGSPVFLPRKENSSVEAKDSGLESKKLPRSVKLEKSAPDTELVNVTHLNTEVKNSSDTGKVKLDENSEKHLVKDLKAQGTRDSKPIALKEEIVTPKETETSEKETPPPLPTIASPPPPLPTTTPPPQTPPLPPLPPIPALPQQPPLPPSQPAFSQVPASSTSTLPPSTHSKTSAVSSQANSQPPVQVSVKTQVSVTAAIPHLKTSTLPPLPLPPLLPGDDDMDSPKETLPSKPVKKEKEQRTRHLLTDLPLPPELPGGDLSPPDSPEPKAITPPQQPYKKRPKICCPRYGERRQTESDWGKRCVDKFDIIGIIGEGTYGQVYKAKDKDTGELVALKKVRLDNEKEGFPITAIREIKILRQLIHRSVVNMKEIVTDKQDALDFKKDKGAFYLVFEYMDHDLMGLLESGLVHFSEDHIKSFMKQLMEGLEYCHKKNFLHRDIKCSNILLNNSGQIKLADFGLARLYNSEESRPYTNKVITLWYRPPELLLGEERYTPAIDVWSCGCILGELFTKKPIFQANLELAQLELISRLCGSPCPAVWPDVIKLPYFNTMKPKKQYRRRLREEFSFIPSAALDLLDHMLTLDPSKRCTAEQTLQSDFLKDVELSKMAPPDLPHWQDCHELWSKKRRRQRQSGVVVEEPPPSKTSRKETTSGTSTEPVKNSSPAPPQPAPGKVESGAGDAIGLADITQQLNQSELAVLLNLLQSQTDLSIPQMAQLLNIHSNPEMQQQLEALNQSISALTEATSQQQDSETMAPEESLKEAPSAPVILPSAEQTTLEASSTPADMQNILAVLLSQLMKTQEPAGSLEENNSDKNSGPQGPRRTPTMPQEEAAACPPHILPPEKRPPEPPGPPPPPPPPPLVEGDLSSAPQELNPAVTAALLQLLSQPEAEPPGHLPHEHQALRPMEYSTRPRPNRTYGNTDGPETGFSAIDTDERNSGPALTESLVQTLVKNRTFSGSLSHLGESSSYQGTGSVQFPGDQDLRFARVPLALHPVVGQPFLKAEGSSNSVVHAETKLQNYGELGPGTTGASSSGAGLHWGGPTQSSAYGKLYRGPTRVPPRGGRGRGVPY
T3 sequence (P50613 whole entry): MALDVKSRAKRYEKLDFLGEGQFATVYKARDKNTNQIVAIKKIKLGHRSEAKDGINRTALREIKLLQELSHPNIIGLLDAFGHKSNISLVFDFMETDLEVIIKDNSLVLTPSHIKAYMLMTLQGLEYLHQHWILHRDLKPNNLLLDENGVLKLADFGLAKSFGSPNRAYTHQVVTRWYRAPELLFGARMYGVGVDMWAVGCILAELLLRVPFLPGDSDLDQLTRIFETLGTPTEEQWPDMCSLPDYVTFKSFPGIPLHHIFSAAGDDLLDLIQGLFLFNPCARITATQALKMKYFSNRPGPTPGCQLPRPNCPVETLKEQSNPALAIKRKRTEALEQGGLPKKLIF
T2 sequence (Q14004 whole entry): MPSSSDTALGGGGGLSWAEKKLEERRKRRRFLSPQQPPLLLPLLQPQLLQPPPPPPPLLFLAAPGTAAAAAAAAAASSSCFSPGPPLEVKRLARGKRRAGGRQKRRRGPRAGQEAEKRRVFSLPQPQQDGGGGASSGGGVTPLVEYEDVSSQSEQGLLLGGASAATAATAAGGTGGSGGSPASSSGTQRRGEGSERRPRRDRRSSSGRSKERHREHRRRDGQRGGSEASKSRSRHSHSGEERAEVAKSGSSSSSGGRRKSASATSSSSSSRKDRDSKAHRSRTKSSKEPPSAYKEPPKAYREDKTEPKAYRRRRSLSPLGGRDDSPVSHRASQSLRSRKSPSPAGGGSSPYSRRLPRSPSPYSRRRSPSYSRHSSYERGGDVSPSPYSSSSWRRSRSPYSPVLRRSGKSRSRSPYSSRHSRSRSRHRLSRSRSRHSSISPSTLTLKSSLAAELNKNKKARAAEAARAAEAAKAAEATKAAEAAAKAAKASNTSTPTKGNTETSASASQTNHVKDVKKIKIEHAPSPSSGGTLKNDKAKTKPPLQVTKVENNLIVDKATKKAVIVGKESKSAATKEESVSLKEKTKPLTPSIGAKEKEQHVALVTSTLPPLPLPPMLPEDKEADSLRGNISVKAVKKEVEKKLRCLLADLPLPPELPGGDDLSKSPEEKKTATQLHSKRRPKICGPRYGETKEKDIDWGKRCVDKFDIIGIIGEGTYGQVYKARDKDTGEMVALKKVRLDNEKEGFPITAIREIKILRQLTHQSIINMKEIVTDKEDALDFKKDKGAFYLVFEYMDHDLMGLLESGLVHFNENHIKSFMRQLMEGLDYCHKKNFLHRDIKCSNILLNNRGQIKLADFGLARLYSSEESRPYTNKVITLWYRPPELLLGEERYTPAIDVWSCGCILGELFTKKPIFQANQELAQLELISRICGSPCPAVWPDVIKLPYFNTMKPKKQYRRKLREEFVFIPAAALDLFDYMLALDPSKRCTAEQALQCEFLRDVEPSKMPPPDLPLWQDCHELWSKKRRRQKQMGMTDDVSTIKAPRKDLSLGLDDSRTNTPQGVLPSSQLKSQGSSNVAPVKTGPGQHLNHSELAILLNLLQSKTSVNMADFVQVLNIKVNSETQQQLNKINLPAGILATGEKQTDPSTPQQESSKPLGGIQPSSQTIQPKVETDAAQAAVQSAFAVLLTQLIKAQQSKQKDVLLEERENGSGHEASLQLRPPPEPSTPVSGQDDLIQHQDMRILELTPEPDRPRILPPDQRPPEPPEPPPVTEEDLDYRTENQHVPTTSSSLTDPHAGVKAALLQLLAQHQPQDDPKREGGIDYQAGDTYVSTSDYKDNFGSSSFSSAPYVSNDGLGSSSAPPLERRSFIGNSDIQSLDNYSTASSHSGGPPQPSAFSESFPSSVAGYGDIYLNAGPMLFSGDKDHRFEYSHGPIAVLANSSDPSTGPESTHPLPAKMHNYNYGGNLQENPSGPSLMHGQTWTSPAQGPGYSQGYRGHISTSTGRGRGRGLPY
T5 sequence (P14416 whole entry): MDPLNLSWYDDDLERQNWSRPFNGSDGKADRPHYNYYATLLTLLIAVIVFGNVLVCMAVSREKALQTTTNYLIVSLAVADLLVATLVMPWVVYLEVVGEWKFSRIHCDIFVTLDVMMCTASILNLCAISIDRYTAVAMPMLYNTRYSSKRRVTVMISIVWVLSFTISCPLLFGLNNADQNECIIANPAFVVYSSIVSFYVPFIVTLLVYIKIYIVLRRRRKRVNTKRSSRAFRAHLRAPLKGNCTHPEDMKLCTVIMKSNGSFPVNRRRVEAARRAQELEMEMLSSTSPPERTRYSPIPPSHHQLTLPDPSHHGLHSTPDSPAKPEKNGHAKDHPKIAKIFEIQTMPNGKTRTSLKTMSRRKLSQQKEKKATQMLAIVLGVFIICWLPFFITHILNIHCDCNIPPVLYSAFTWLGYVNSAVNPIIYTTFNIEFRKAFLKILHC
Sequence of CDK5/Cyclin D3 (Homo sapiens) (P30281 whole entry, looked up): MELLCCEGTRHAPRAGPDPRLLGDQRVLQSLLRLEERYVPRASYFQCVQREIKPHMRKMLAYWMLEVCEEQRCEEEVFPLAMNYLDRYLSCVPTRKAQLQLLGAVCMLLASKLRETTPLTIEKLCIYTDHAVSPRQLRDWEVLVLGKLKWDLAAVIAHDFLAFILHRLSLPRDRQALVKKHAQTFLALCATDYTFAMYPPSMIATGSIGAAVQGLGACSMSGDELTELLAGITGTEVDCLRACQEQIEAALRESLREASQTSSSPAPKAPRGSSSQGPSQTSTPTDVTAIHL
Sequence of CDK5/Cyclin D3 (Homo sapiens) (Q00535 whole entry, looked up): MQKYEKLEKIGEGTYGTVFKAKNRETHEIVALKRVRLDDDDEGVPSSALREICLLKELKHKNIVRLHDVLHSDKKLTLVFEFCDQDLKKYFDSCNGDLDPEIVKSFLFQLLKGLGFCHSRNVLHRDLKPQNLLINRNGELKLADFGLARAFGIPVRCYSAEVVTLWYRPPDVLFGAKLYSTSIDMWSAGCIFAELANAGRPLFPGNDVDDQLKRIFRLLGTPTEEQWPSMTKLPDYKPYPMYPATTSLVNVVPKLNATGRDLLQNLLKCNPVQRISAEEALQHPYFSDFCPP
Sequence of Cyclin-dependent kinase 7 (Homo sapiens, UniProt P50613, C312S) (P50613 2-346 C312S limits assumed): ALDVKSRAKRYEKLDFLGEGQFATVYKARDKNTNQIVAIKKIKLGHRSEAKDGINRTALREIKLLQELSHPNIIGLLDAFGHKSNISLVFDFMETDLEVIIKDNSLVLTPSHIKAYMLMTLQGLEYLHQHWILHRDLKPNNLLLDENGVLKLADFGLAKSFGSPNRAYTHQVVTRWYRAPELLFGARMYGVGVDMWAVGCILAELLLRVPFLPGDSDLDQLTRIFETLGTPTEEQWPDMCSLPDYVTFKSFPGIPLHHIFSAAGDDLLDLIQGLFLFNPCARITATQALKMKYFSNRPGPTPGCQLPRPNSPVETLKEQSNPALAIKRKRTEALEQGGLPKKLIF

- IC50 [1]: > 1000 nM
- IC50 [2]: > 10000 nM
- IC50 [3]: > 10000 nM
- Ki [4]: 1.9 nM
- IC50 [5]: > 30000 nM
- IC50 [6]: > 1000 nM
- IC50 [7]: > 10000 nM
- IC50 [8]: > 30000 nM
- IC50 [9]: > 1000 nM
- IC50 [10]: > 1000 nM
Structure (SMILES): C=CC(=O)Nc1ccc(C(=O)Nc2n[nH]c3c2CN(C(=O)N[C@H](CN(C)C)c2ccccc2)C3(C)C)cc1

- % of inhibition [11]: 2%
- % of inhibition [12]: 13%
- % of inhibition [13]: 39%
- % of inhibition [14]: 18%
- % of inhibition [15]: 47%
- IC50 [16]: 4 nM
- % of inhibition [17]: 2%
- IC50 [18]: > 30000 nM
- % of inhibition [19]: 7%
- % of inhibition [20]: 54%
- IC50 [21]: 4 nM
- % of inhibition [22]: -1%
- IC50 [23]: > 30000 nM
- % of inhibition [24]: 12%
- % of inhibition [25]: -1%
- IC50 [26]: 8500 nM
- % of inhibition [27]: -7%
- % of inhibition [28]: 48%
Structure (SMILES): Cc1n[nH]c2ncc(C(=O)N3CCC[C@H]3c3ccc(Cl)cc3)cc12
